Data on 42 molecules can be found in US6897219B2, “Heteroaryl diazacycloalkanes, their preparation and use” (priority 1997, dated 2005).

The structures appear in SMILES notation. Structures can show the parent of a compound that is named as a salt. Where two headings read alike, the source gives them in different places. Some results are limits rather than exact numbers.

In data set [1] the target is T1, neuronal nicotinic receptors (α4β2 subtype high affinity site) (Rattus norvegicus, UniProt P09483+P12390).
T1 construct: The forebrain (÷cerebellum) from a male Wistar rat (150-250 g) is homogenized; from tissue; host or cells: rat forebrain (without cerebellum) membrane homogenate
Kind of data set: In vitro inhibition of 3H-epibatidin binding. As to the method: The high affinity binding site for ^3H-epibatidin is most certainly binding to the α4β2 subtype of nicotinic receptors. The identity of the low affinity site is still unknown; does it represent a second nicotinic receptor or a second site in the same receptor.
Tissue preparation: Preparations are performed at 0-4° C. unless otherwise indicated. The forebrain (÷cerebellum) from a male Wistar rat (150-250 g) is homogenized for 10-20 sec in 20 ml Tris, HCl (50 mM, pH 7.4) using an Ultra-Turrax homogenizer. The tissue suspension is centrifuged at 27,000×g for 10 min. The supernatant is discarded and the pellet is washed three times by centrifugation at 27,000×g for 10 min in 20 ml fresh buffer, and the final pellet is resuspended in fresh buffer (400 ml per g of original tissue) and used for binding assays.
Assay: Aliquots of 2.0 ml homogenate are added to 0.100 ml of test solution and 0.100 ml of ^3H-epibatidin (0.3 nM, final concentration), mixed and incubated for 60 min at room temperature. Non-specific binding is determined using (−)-nicotine (30 μM, final concentration). After incubation the samples are poured directly onto Whatman GF/C glass fibre filters (presoaked in 0.1% PEI for at least 20 min) under suction and immediately washed with 2×5 ml ice-cold buffer. The amount of radioactivity on the filters is determined by conventional liquid scintillation counting. Specific binding is total binding minus non-specific binding.

Data set [2] deals with nAChRs comprised of α4 and β2 subunits (Rattus norvegicus, UniProt P09483+P12390). In words: In vitro inhibition of 3H-cytisine binding. As to the method: The predominant subtype with high affinity for nicotine is comprised of α4 and β2 subunits. nAChRs of the latter type can selectively be labelled by the nicotine agonist ^3H-cytisine.
Tissue Preparation: Preparations are performed at 0-4° C. unless otherwise indicated. […] The homogenate is centrifuged at 27,000×g for 10 min. The supernatant is discarded and the pellet is resuspended in fresh buffer and centrifuged a second time. The final pellet is resuspended in fresh buffer (35 ml per g of original tissue) and used for binding assays.
Assay: Aliquots of 500 μl homogenate are added to 25 μl of test solution and 25 μl of ^3H-cytisine (1 nM, final concentration), mixed and incubated for 90 min at 2° C. Non-specific binding is determined using (−)-nicotine (100 μM, final concentration). After incubation the samples are added 5 ml of ice-cold buffer and poured directly onto Whatman GF/C glass fibre filters under suction and immediately washed with 2×5 ml ice-cold buffer. The amount of radioactivity on the filters is determined by conventional liquid scintillation counting. Specific binding is total binding minus non-specific binding.

The target in data set [3] is nAChR formed by the α7 subunit isoform (Rattus norvegicus, UniProt Q05941). In words: biochemical. The format is binding.
Where [4] appears, read: rat forebrain homogenate, 0.3 nM 3H-epibatidin, 60 min at room temperature, read-out: 3H-epibatidin IC50.
Setting [5] is: rat cerebral cortex homogenate, 1 nM 3H-cytisine, 90 min at 2° C., read-out: 3H-cytisine IC50.

Chain of nAChR formed by the α7 subunit isoform (Q05941 23-502): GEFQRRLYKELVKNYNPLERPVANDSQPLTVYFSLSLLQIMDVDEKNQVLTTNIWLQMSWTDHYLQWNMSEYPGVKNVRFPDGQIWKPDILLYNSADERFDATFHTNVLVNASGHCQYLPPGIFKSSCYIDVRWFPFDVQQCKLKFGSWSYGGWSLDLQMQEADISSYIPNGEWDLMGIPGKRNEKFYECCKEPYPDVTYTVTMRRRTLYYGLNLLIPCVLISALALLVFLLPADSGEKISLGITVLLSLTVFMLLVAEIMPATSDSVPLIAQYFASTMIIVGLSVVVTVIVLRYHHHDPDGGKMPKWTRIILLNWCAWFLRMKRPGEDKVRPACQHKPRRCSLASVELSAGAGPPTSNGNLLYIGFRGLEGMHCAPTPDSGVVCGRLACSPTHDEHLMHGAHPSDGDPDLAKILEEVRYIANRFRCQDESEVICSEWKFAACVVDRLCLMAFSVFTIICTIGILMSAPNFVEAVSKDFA
Chain of nAChRs comprised of α4 and β2 subunits (P09483 31-630): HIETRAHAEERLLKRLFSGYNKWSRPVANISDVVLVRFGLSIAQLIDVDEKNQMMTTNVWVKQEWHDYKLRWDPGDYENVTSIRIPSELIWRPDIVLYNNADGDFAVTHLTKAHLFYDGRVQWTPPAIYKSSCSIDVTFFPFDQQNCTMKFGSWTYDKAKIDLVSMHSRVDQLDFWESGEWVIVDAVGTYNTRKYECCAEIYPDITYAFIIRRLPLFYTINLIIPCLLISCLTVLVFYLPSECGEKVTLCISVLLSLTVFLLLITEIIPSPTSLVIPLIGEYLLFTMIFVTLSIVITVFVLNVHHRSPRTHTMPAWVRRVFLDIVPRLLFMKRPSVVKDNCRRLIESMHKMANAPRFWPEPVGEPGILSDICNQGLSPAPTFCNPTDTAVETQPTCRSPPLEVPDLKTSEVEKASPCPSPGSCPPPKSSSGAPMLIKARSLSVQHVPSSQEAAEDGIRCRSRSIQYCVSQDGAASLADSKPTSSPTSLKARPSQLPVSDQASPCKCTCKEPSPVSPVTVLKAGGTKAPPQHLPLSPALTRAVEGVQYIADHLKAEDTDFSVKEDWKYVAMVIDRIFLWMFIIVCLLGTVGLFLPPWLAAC
Chain of nAChRs comprised of α4 and β2 subunits (P12390 25-500): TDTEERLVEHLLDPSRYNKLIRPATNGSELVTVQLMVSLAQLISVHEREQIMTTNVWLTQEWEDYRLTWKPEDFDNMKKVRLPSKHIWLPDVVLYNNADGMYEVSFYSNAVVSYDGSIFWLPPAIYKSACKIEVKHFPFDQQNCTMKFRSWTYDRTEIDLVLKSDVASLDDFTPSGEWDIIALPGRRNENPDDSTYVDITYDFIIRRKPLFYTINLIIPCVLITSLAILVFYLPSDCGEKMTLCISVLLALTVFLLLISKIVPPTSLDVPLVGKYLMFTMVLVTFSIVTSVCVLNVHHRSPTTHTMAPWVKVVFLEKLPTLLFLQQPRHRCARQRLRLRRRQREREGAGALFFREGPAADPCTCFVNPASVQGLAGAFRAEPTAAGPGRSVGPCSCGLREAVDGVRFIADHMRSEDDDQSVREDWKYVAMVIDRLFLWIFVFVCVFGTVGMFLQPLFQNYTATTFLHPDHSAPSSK
T1 sequence (P09483 31-630): as the sequence (P09483 31-630) above
T1 sequence (P12390 25-500): as the sequence (P12390 25-500) above

The IC50 is the concentration that inhibits the measured activity by half. For the molecule `CCOc1cncc(N2CCCNCC2)c1` [Compound 3H, 1-(5-Ethoxy-3-pyridyl)-homopiperazine], the IC50 was 10 nM in data set [1], 2 nM in data set [2] and 20000 nM in data set [3].
With `COc1cncc(N2CCCN(C)CC2)c1` [Compound 3E, 1-(5-Methoxy-3-pyridyl)-4-methyl-homopiperazine], the IC50 in data set [1] (setting [4]) worked out at 750 nM; in data set [2], 94 nM; in data set [3], 26000 nM.
Take `CCCCOc1cncc(N2CCCN(C)CC2)c1` [Compound 6E, 1-(5-Butoxy-3-pyridyl)-4-methyl-homopiperazine]: the IC50 in data set [1] (setting [4]) is 240 nM; in data set [2] it was 45 nM; in data set [3] it was above 30000 nM.
Consider `CN1CCCN(c2cncc(OCC3CCCCC3)c2)CC1` [Compound 14E, 1-(5-Cyclohexylmethoxy-3-pyridyl)-4-methyl-homopiperazine], for which the values for the 50% inhibitory concentration (IC50) in data set [1], in data set [2] (setting [5]) and in data set [3] were 480 nM, 200 nM and above 30000 nM, respectively.
For the molecule `COc1cncc(N2CCN(C)C2)c1` [Compound 1M, 1-(5-Methoxy-3-pyridyl)-3-methyl-imidazolidine], the IC50 was 8800 nM in data set [1], 590 nM in data set [2] and above 30000 nM in data set [3].
Turning to `CN1CCN(c2cccnc2)CC1` [Compound 1A, 4-Methyl-1-(3-pyridyl)-piperazine], the IC50 in data set [3] was 6800 nM.
For the molecule `CN1CCCN(c2cnc3ccccc3c2)CC1` [Compound 2E, 4-Methyl-1-(3-quinolinyl)-homopiperazine], the IC50 in data set [1] turned out to be 4900 nM; in data set [2] (setting [5]), 340 nM; in data set [3], 1800 nM.
Taken in the same sequence, the figures for `c1ccc2nc(N3CCCNCC3)cnc2c1` [Compound 2L, 1-(2-Quinoxalinyl)-homopiperazine] were 2000 nM, 260 nM and 27000 nM.
With `c1cnnc(N2CCCNCC2)c1` [Compound 1L, 1-(3-Pyridazinyl)-homopiperazine], the IC50 turned out to be 250 nM in data set [1], 30 nM in data set [2] and 1600 nM in data set [3].
Turning to `c1cncc(N2CCCNCC2)c1` [Compound 1F, 1-(3-Pyridyl)-homopiperazine], the IC50 in data set [1] amounted to 5 nM; in data set [2], 2 nM.
Take `COc1cncc(N2CCCNC(C)CC2)c1` (stereo not drawn) [Compound 11A]: the IC50 is 40 nM in data set [2] and above 30000 nM in data set [3].
What is called melting point is the temperature, or range, at which the solid turns liquid. The molecule `CN1CCCN(c2cncc(SCc3ccccc3)c2)CC1` (as salt: fumaric acid salt) [Compound 18E, 4-Methyl-1-(5-thiobenzyl-3-pyridyl)-homopiperazine] registered a melting point of 131 to 133 °C.
The same measure, in the same setting: next, `c1ccc(-c2cncc(N3CCCNCC3)c2)cc1` (as salt: fumaric acid salt) [Compound 2H, 1-(5-Phenyl-3-pyridyl)-homopiperazine]: 185 to 186 °C; `CCCCOc1cncc(N2CCCNCC2)c1` (as salt: fumaric acid salt): 150 to 151 °C; `CCCCCCCOc1cncc(N2CCCNCC2)c1` (as salt: fumaric acid salt): 132.8 to 136.6 °C.
On the same count and under the same terms, to `CCOc1cc(N2CCCNCC2)cnc1Br` (as salt: fumaric acid salt) belongs 181.7 to 183.2 °C.
In the case of `COc1cncc(N2CCCN(C)CC2)c1` (as salt: fumaric acid salt) [Compound 3E, 1-(5-Methoxy-3-pyridyl)-4-methyl-homopiperazine], the melting point lay within 145 to 147 °C.
Same read-out and setting: next, `CN1CCCN(c2cncc(-c3cccnc3)c2)CC1` (as salt: fumaric acid salt) [Compound 19E, 4-Methyl-1-[5-(3-pyridyl)-3-pyridyl]-homopiperazine]: 165.5 to 167.5 °C; `CN1CCN(c2cnc3ccccc3c2)CC1`: 116.5 to 117 °C.
Still for that read-out and setting: to `Oc1cncc(N2CCCNCC2)c1` (as salt: hydrochloric acid salt) belongs 290 to 300 °C; to `Nc1cccc(N2CCCNCC2)c1` (as salt: fumaric acid salt), 165.4 to 167.7 °C; to `COc1cc(N2CCCNCC2)cnc1Cl` (as salt: fumaric acid salt) [Compound 5F, 1-(6-Chloro-5-methoxy-3-pyridyl)-homopiperazine], 196 to 197 °C.
Still for that read-out and setting: to `CN1CCCN(c2cccnn2)CC1` (as salt: fumaric acid salt) belongs 137.8 to 139.3 °C; to `COc1cncc(N2CCCNCCC2)c1` (as salt: fumaric acid salt) [Compound 6B, 1-(5-Methoxy-3-pyridyl)-1,5-diazacyclooctane], 158 to 160 °C.
On to `Cc1ccc(N2CCCNCC2)nn1` (as salt: fumaric acid salt) [Compound 5K, 1-(6-Methyl-3-pyridazinyl)-homopiperazine], for which the melting point is 102 to 105 °C.
The same measure, in the same setting: to `CCOc1cncc(N2CCCN(C)CC2)c1` (as salt: fumaric acid salt) [Compound 4E, 1-(5-Ethoxy-3-pyridyl)-4-methyl-homopiperazine] belongs 150 to 152 °C; to `Clc1cncc(N2CCCNCC2)n1` (as salt: fumaric acid salt) [Compound 3K, 1-(6-Chloro-2-pyrazinyl)-homopiperazine], 180 to 181 °C.
As to `Clc1cncc(N2CCCNCC2)c1` (as salt: fumaric acid salt), the melting point lay in the range of 144.4 to 146.6 °C.
On the same count and under the same terms, to `c1ncc(N2CCCNCC2)cc1OCC1CCCCC1` (as salt: fumaric acid salt) belongs 163.3 to 164.5 °C.
In turn, `CCOc1cncc(N2CCN(C)CC2)c1` (as salt: fumaric acid salt) [Compound 7A, 1-(5-Ethoxy-3-pyridyl)-4-methyl-piperazine] had a melting point of 162.2 to 163.7 °C.
Consider `CCCCOc1cncc(N2CCCN(C)CC2)c1` (as salt: fumaric acid salt) [Compound 6E, 1-(5-Butoxy-3-pyridyl)-4-methyl-homopiperazine], for which the melting point lay in the range of 127 to 129 °C.
In the case of `COc1cnc(Cl)c(N2CCCNCC2)c1` (as salt: fumaric acid salt), the melting point lay in the range of 117 to 118 °C.
Still for that read-out and setting: next, `c1ccc(CN2CCCN(c3cccnc3)CC2)cc1` (as salt: fumaric acid salt): 148.4 to 149 °C.
Still for that read-out and setting: next, `CN1CCCN(c2cnc3ccccc3c2)CC1` (as salt: fumaric acid salt) [Compound 2E, 4-Methyl-1-(3-quinolinyl)-homopiperazine]: 170 to 171 °C; `c1ccc2ncc(N3CCCNCC3)cc2c1` (as salt: fumaric acid salt) [Compound 2F, 1-(3-Quinolinyl)-homopiperazine]: 181 to 182 °C; `Brc1ccc(N2CCCNCC2)cn1` (as salt: fumaric acid salt) [Compound 8K, 1-(6-Bromo-3-pyridyl)-homopiperazine]: 164 to 166 °C.
Consider `COc1cncc(N2CCCN(C)CCC2)c1` [Compound 11A], for which the IC50 in data set [1] (setting [4]) is 1200 nM.
`CCCOc1cncc(N2CCCN(C)CC2)c1` (as salt: fumaric acid salt) [Compound 10E, 4-Methyl-1-(5-propyloxy-3-pyridyl)-homopiperazine] returned a melting point of 148.8 to 153.5 °C.
On the same count and under the same terms, next, `CN1CCCN(c2cncc(-c3ccccc3)c2)CC1` (as salt: fumaric acid salt) [Compound 5E, 4-Methyl-1-(5-phenyl-3-pyridyl)-homopiperazine]: 161 to 162 °C.
On the same count and under the same terms, to `CN1CCCN(c2cncc(OC3CCCC3)c2)CC1` (as salt: fumaric acid salt) [Compound 25E, 1-(5-Cyclopentyloxy-3-pyridyl)-4-methyl-homopiperazine] belongs 123 to 125 °C.
For `CCOc1cncc(N2CCNCC2)c1` (as salt: fumaric acid salt) [Compound 1D, 1-(5-Ethoxy-3-pyridyl)piperazine], the melting point was in the range of 160 to 161.2 °C.
`O=S(=O)(Oc1cncc(N2CCCNCC2)c1)C(F)(F)F` (as salt: fumaric acid salt): the melting point fell in the range of 154 to 156 °C.
